Series [1] has as its system GLP-1 secretion from mouse secretin tumor (mSTC-1) intestinal enteroendocrine cells. Description: ELISA primary assay: GLP-1 secretion from mSTC-1 cells, percent stimulation. It counts as cell-based. The note with it: for mSTC-1 GLP1 Sec %Stim@2 μM: 2 μM test compound; for mSTC-1 GLP1 Sec %Stim@2 μM / mSTC-1 GLP1 Sec %Stim@20 μM: mSTC-1 cells, ELISA; for mSTC-1 GLP1 Sec %Stim@20 μM: 20 μM test compound; for activation at 20 µM: Mus musculus, read-out: mSTC-1 GLP1 Sec %Stim@20 μM.

The test system of series [2] is GLP-1 secretion from mSTC-1 cells. Description: Concentration-response curve. It counts as cell-based, mouse.
Series [3] deals with GLP-1 release from hNCI-H716 colorectal adenocarcinoma cell line. Description: CRC EC50 in GLP-1 release from hNCI-H716 cells. It counts as cell-based. Particulars: Homo sapiens, read-out: hNCI-H716 GLP1 Sec CRC EC50.
Series [4] can be described thus: in vitro. The note with it: mouse, mSTC-1 cells.
Series [5] in a line: in vitro. Particulars: human, hNCI-H716 colorectal adenocarcinoma cells.
The mark [6] stands for this setting: Mus musculus, read-out: mSTC-1 GLP1 Sec CRC EC50, mSTC-1 cells, concentration-response curve.
[7] abbreviates: read-out: mSTC-1 GLP1 Sec CRC EC50, mSTC-1 cells, concentration-response curve.

SMILES strings stand for the structures. Where two headings read alike, the source gives them in different places.

On to `CC[C@H]1Nc2ccc(NC(C)=O)cc2[C@@H](NS(C)(=O)=O)[C@@H]1C` [Compound 8q, N-((2R,3R,4S)-2-Ethyl-3-methyl-4-(methylsulfonamido)-1,2,3,4-tetrahydroquinolin-6-yl)acetamide], for which, in series [1], the “mSTC-1 GLP1 Sec %Stim@2 μM” value stood at 0% and the “mSTC-1 GLP1 Sec %Stim@20 μM” value was determined as 18%.
Consider `COc1ccc2c(c1)[C@@H](NC(=O)OCc1ccccc1)[C@H](C)[C@@H](c1ccccc1)N2C(=O)NC(C)C` [Compound 6g, Benzyl ((2S,3S,4S)-1-(isopropylcarbamoyl)-6-methoxy-3-methyl-2-phenyl-1,2,3,4-tetrahydroquinolin-4-yl)carbamate], for which the activation at 20 µM in series [1] amounted to 0%.
For the compound `C[C@@H]1[C@@H](c2ccccc2)Nc2ccc(-c3ccccc3)cc2[C@H]1NC(=O)OCc1ccccc1` [Compound 9, Benzyl (2S,3R,4S)-3-methyl-2,6-diphenyl-1,2,3,4-tetrahydroquinolin-4-ylcarbamate], the “mSTC-1 GLP1 Sec %Stim@2 μM” value in series [1] was 82%. Besides, the “mSTC-1 GLP1 Sec %Stim@20 μM” value in series [1] is given as 99%. The EC50 in series [2] (setting [6]) is 2.2 µM; in series [3], greater than 40 µM; in the series “in vitro [4]” it was greater than 40 µM; in the series “in vitro [5]”, greater than 40 µM.
On to `COc1ccc2c(c1)[C@@H](NC(=O)c1c(C)noc1C)[C@H](C)[C@@H](c1ccccc1)N2Cc1cccc(F)c1` [Compound 8j, N-((2S,3S,4S)-1-(3-Fluorobenzyl)-6-methoxy-3-methyl-2-phenyl-1,2,3,4-tetrahydroquinolin-4-yl)-3,5-dimethylisoxazole-4-carboxamide], for which the activation at 20 µM in series [1] turned out to be 0%.
In the case of `COc1ccc2c(c1)[C@@H](NS(C)(=O)=O)[C@H](C)[C@@H](c1ccccc1)N2Cc1cccc(F)c1` [Compound 8k, N-((2S,3R,4S)-1-(3-Fluorobenzyl)-6-methoxy-3-methyl-2-phenyl-1,2,3,4-tetrahydroquinolin-4-yl)methanesulfonamide], the “mSTC-1 GLP1 Sec %Stim@2 μM” value in series [1] amounted to 0%. Besides, in series [1], the “mSTC-1 GLP1 Sec %Stim@20 μM” value was 53%. Also, the EC50 was less than 10 µM in series [2] (setting [6]); 8.3 µM in series [2] (setting [7]); greater than 40 µM in series [3]; greater than 40 µM in the series “in vitro [4]”; greater than 40 µM in the series “in vitro [5]”.
Consider `COc1ccc2c(c1)[C@@H](NC(=O)OCc1ccccc1)[C@H](C)[C@@H](c1cccnc1)N2` [Compound 5f, Benzyl (2S,3R,4S)-6-methoxy-3-methyl-2-(pyridin-3-yl)-1,2,3,4-tetrahydroquinolin-4-ylcarbamate], for which, in series [1], the “mSTC-1 GLP1 Sec %Stim@2 μM” value is 0% and the “mSTC-1 GLP1 Sec %Stim@20 μM” value turned out to be 22%.
Take `CC[C@H]1Nc2ccc(OC)cc2[C@@H](NCc2nccs2)[C@@H]1C` [Compound 8n, (2R,3R,4S)-2-Ethyl-6-methoxy-3-methyl-N-(thiazol-2-ylmethyl)-1,2,3,4-tetrahydroquinolin-4-amine]: the “mSTC-1 GLP1 Sec %Stim@2 μM” value in series [1] is listed as 0%. Also, the “mSTC-1 GLP1 Sec %Stim@20 μM” value in series [1] is recorded as 49%. Besides, the EC50 in series [2] (setting [6]) was 26.1 µM; in series [3] it was greater than 40 µM; in the series “in vitro [4]” it was greater than 40 µM; in the series “in vitro [5]” it was greater than 40 µM.
In the case of `COc1ccc2c(c1)[C@@H](N(Cc1nccs1)Cc1nccs1)[C@H](C)[C@@H](C(C)C)N2` [Compound 8p, (2R,3R,4S)-2-Isopropyl-6-methoxy-3-methyl-N,N-bis(thiazol-2-ylmethyl)-1,2,3,4-tetrahydroquinolin-4-amine], the “mSTC-1 GLP1 Sec %Stim@2 μM” value in series [1] came out at 0%. Also, the “mSTC-1 GLP1 Sec %Stim@20 μM” value in series [1] is given as 80%. The EC50 was 21.9 µM in series [2] (setting [6]), greater than 40 µM in series [3], greater than 40 µM in “in vitro [4]” and greater than 40 µM in “in vitro [5]”.
On to `COc1ccc2c(c1)[C@@H](NC(=O)OCc1ccccc1)[C@H](C)[C@@H](C(C)C)N2` [Compound 5b, Benzyl ((2R,3R,4S)-2-isopropyl-6-methoxy-3-methyl-1,2,3,4-tetrahydroquinolin-4-yl)carbamate], for which the “mSTC-1 GLP1 Sec %Stim@2 μM” value in series [1] came to 0%. For the same compound, the “mSTC-1 GLP1 Sec %Stim@20 μM” value in series [1] was found to be 98%. Moreover, the EC50 is 10.8 µM in series [2] (setting [6]), greater than 40 µM in series [3], greater than 40 µM in “in vitro [4]” and greater than 40 µM in the series “in vitro [5]”.
As for `COc1ccc2c(c1)[C@@H](NC(=O)c1c(C)noc1C)[C@H](C)[C@@H](c1ccccc1)N2C(=O)NC(C)C` [Compound 8f, N-((2S,3S,4S)-1-(Isopropylcarbamoyl)-6-methoxy-3-methyl-2-phenyl-1,2,3,4-tetrahydroquinolin-4-yl)-3,5-dimethylisoxazole-4-carboxamide], the activation at 20 µM in series [1] stood at 0%.
Take `COc1ccc2c(c1)[C@@H](NCc1nccs1)[C@H](C)[C@@H](c1ccccc1)N2C(=O)NC(C)C` [Compound 8d, (2S,3S,4S)-N-Isopropyl-6-methoxy-3-methyl-2-phenyl-4-((thiazol-2-ylmethyl)amino)-3,4-dihydroquinoline-1(2H)-carboxamide]: the “mSTC-1 GLP1 Sec %Stim@2 μM” value in series [1] came to 0%. Further, the “mSTC-1 GLP1 Sec %Stim@20 μM” value in series [1] turned out to be 28%. Further, the EC50 (in series [2] (setting [6]); in series [3]; in the series “in vitro [4]”; in the series “in vitro [5]”) was greater than 40 µM throughout.
For the compound `COc1ccc2c(c1)[C@@H](NC(=O)OCc1ccccc1)[C@H](C)[C@@H](c1ccccc1)N2` [Compound 5a, benzyl (2S,3R,4S)-6-methoxy-3-methyl-2-phenyl-1,2,3,4-tetrahydroquinolin-4-ylcarbamate], the “mSTC-1 GLP1 Sec %Stim@2 μM” value in series [1] came out at 2%. Moreover, in series [1], the “mSTC-1 GLP1 Sec %Stim@20 μM” value was 68%. Further, the EC50 was less than 10 µM in series [2] (setting [6]); 5.3 µM in series [2] (setting [7]); greater than 40 µM in series [3]; greater than 40 µM in “in vitro [4]”; greater than 40 µM in the series “in vitro [5]”.
Turning to `COc1ccc2c(c1)[C@@H](NS(C)(=O)=O)[C@H](C)[C@@H](C(C)C)N2` [Compound 8m, N-((2R,3R,4S)-2-Isopropyl-6-methoxy-3-methyl-1,2,3,4-tetrahydroquinolin-4-yl)methanesulfonamide], the activation at 20 µM in series [1] amounted to 0%.
The same measure, in the same setting: to `CC[C@H]1Nc2ccc(OC)cc2[C@@H](NS(C)(=O)=O)[C@@H]1C` [Compound 8l, N-((2R,3R,4S)-2-Ethyl-6-methoxy-3-methyl-1,2,3,4-tetrahydroquinolin-4-yl)methanesulfonamide] belongs 0%; to `COc1ccc2c(c1)[C@@H](NC(C)=O)[C@H](C)[C@@H](c1ccccc1)N2C(=O)Nc1ccc(C(F)(F)F)cc1` [Compound 8i, (2S,3S,4S)-4-Acetamido-6-methoxy-3-methyl-2-phenyl-N-(4-(trifluoromethyl)phenyl)-3,4-dihydroquinoline-1(2H)-carboxamide], 0%.
For the compound `COc1ccc2c(c1)[C@@H](NC(=O)OCc1ccccc1)[C@H](C)[C@@H](c1ccccc1)N2Cc1cccc(F)c1` [Compound 6a, Benzyl(2S,3S,4S)-1-(3-fluorobenzyl)-6-methoxy-3-methyl-2phenyl-1,2,3,4-tetrahydroquinolin-4-ylcarbamate], in series [1], the “mSTC-1 GLP1 Sec %Stim@2 μM” value was 8%. Further, the “mSTC-1 GLP1 Sec %Stim@20 μM” value in series [1] came out at 40%. For the same compound, the EC50 (in series [2] (setting [6]); in series [3]; in “in vitro [4]”; in the series “in vitro [5]”) was greater than 40 µM throughout.
With `COc1ccc2c(c1)[C@@H](NC(=O)OCc1ccccc1)[C@H](C)[C@@H](c1ccccc1)N2Cc1ccccn1` [Compound 6c, Benzyl (2S,3S,4S)-6-methoxy-3-methyl-2-phenyl-1-(pyridin-2-ylmethyl)-1,2,3,4-tetrahydroquinolin-4-ylcarbamate], in series [1], the activation at 20 µM came to 0%.
With `COc1ccc2c(c1)[C@@H](NCc1ccccn1)[C@H](C)[C@@H](c1ccccc1)N2C(=O)NC(C)C` [Compound 8e, (2S,3S,4S)-N-isopropyl-6-methoxy-3-methyl-2-phenyl-4-((pyridin-2-ylmethyl)amino)-3,4-dihydroquinoline-1(2H)-carboxamide], in series [1], the activation at 20 µM was determined as 0%.
Consider `COc1ccc2c(c1)[C@@H](NCc1nccs1)[C@H](C)[C@@H](C(C)C)N2` [Compound 8o, (2R,3R,4S)-2-Isopropyl-6-methoxy-3-methyl-N-(thiazol-2-ylmethyl)-1,2,3,4-tetrahydroquinolin-4-amine], for which the “mSTC-1 GLP1 Sec %Stim@2 μM” value in series [1] amounted to 0%. Besides, the “mSTC-1 GLP1 Sec %Stim@20 μM” value in series [1] stood at 61%. The EC50 in series [2] (setting [6]) is 16.9 µM; in series [3], greater than 40 µM; in the series “in vitro [4]” it was greater than 40 µM; in the series “in vitro [5]”, greater than 40 µM.
`CC[C@H]1Nc2ccc(NC(=O)OC(C)(C)C)cc2[C@@H](NC(=O)OCc2ccccc2)[C@@H]1C` [Compound 5e, Benzyl tert-butyl ((2R,3R,4S)-2-ethyl-3-methyl-1,2,3,4-tetrahydroquinoline-4,6-diyl)dicarbamate]: the activation at 20 µM in series [1] was 0%.
